# Assay results published in patent publication US9943599B2, “Therapeutic applications of calcium electroporation to effectively induce tumor necrosis” (Herlev Hospital, priority 2011, dated 2018).
# How the values were obtained:
# [1] = tested on: B16 (murine melanoma) tumors; assay: Fraction of necrosis after calcium electroporation, B16 tumors; type: in vivo, NMRI-Foxn1^nu mice; details: 168 mM CaCl2, half tumor volume, first days after treatment
# Procedure: (§1) LPB, a murine sarcoma cell line, B16, a murine malignant melanoma cell line, MDA-MB231, human a breast cancer cell line, HT29, a human colon cancer cell line, and SW780, a human bladder cancer cell line were used for the in vivo experiment. The cells were tested by rapid MAP27 panel (Taconic, Hudson N.Y.) before use without signs of infection. 2×10^5 cells (B16), 8×10^5 cells (LPB), 2.5×10^6 cells (MDA-MB231), and 5×10^6 cells (HT29 and SW780) in 100 μl PBS were injected subcutaneously in the flank of NMRI-Foxn1^nu mice (Harlan, Indianapolis, Ind.) that were 9-11 weeks old. Mice were randomised at a tumor volume above 85 mm^3 and tumors were treated with injection of isotonic calcium-chloride solution (168 mM CaCI2) and electroporation (8 pulses of 1.0 kv/cm for 100 μs and a frequency of 1 Hz) using a 6 mm plate electrode and a square wave electroporator (CLINIPORATOR®, IGEA, Modena, Italy). Tumor volume was calculated as ab^2n/6, where a is the largest diameter and b is the largest diameter perpendicular to a. The injected volume was half of the tumor volume. […] The fraction of necrosis within the tumor was estimated from HE-sections by stereological point counting using a light microscope, evaluated by a pathologist, blinded with respect to treatment status.
# (§2) The difference in fraction of necrosis at different time after treatment was assessed using student's t-test.
# DC-3F cells [2] = assay: Calcium electroporation with two calcium sources, MTT assay; type: cell-based, Chinese hamster; details: 1 mM, 8 pulses, 0-1.6 kV/cm; MTT 1 day after treatment
# Procedure: DC-3F cells were electroporated as described in example 1 with 1 mM calcium chloride (prepared by SAD, Denmark) or 1 mM calcium glubionate (Sandoz, Holzkirchen, Germany). The calcium concentration was chosen based on the experiment described in example 1 where 1 mM calcium is the lowest concentration inducing high cell death. The cells were electroporated with 8 pulses of […] at 1 Hz and increasing electric field (0-1.6 kV/cm). After 20 min at 37° C. and 5% CO2 cells were diluted in RPMI 1640 culture medium with 10% fetal calf serum and penicillin-streptomycin and seeded in 96-well plates at a concentration of 3.1×10^4 cells/100 μl.
# DC-3F cells [3] = assay: ATP assay after calcium electroporation; type: cell-based, Chinese hamster
# Procedure: DC-3F cells are electroporated as described in Example 1 with 1 mM calcium. Cells electroporated with HEPES buffer, non-electroporated cells with 1 mM calcium, and untreated cells are used as controls. Cell death induced by irreversible electroporation (8 pulses of 6.6 kV/cm with pulse duration of 99 μs) is used as […]. Cells are seeded in 96-well plates at a concentration of 3.1×10^4 cells/100 μl. Cells are lysed using Cell-Based Assay Lysis Buffer (Cayman Chemical, Ann Arbor, Mich.) and ATP content is determined after 1, 4 and 8 hours incubation by adding 100 μl rL/L Reagent (ENLITEN® ATP assay, Promega, Madison, Wis.) and measuring light emission using a luminometer (LUMIstar®, BMG biotechnology, Ortenberg, Germany).
# Difference in ATP level after different treatments is assessed using two-way ANOVA with post least-squares-means test with Bonferroni correction for multiple comparisons.
# [4] = tested on: DC-3F, K-562 and Lewis Lung Carcinoma cells; assay: Hypothetical sonoporation in vitro, MTT assay; type: cell-based, Chinese hamster, human, murine
# Procedure: Three cell lines are used for in vitro experiments, DC-3F, a transformed Chinese hamster lung fibroblast cell line; K-562, a human leukemia cell line; and Lewis Lung Carcinoma, a murine lung carcinoma cell line. All cell lines are tested for mycoplasma. Cells are maintained in RPMI 1640 culture medium with 10% fetal calf serum, penicillin and streptomycin at 37° C. and 5% CO2. After harvesting, cells are washed and diluted in HEPES buffer containing 10 mM HEPES, 250 mM sucrose and 1 mM MgCl2 in sterile. The cell suspension with 0, 0.5, 1 and 3 mM CaCl2 is added to a sample tube which is placed in the ultrasound exposure chamber and exposed to low-frequency ultrasound at room temperature. A function generator is programmed to provide a wave of selected voltage, duty cycle, burst length, and total exposure time.
# After 20 min at 37° C. and 5% CO2 cells are diluted in RPMI 1640 culture medium with 10% fetal calf serum and penicillin-streptomycin and seeded in 96-well plates at a concentration of 3.1×10^4 cells/100 μl.
# Difference between cells treated with and without ultrasound in identical buffer is assessed using two-way analysis of variance CANOVA) with post least-squares-means test with Bonferroni correction for multiple comparisons.
# [5] = tested on: H69 (human small cell lung cancer) tumors; assay: Tumor volume and fluorescence intensity of H69 tumors on nude mice; details: for necrosis of skin / healthy tissue around the tumor: injected volume equivalent to the tumor volume (1 to 1 ratio)
# basocellular carcinoma = assay: Case study, calcium electroporation in a human patient; type: in vivo
# Procedure: In a patient with multiple basocellular carcinomas, where all known treatment options had been tried and the patient was still in need of treatment, calcium electroporation was tried.
# In this patient, lesions that were verified by biopsy to contain basocellular carcinoma were treated with different doses of calcium chloride or calcium glubionate with electroporation. Three lesions were treated, measuring 0.8 to 2 cm, by 0.1-0.2 mm deep.
# After local anaesthesia (Mir et al), calcium was injected intratumorally using a thin needle and 1 ml syringe. Volumes of resp. 0.1, 0.7 and 3.7 times the calculated tumor volume (in this case calculated as diameter times perpendicular diameter times depth due to the shape of the tumors) was injected.
# Immediately after injection (within 45 seconds), electroporation was performed using a square wave pulse generator (CLINIPORATOR®, IGEA, Modena, Italy) and needle electrodes with parallel arrays 0.4 cm apart. Eight pulses of a duration of 0.1 ms and 1 kV/cm (voltage to electrode distance ratio) were administered immediately after calcium injection.
# [6] = tested on: MDA-MB231 (human breast cancer) tumors; assay: Fraction of necrosis after calcium electroporation, MDA-MB231 tumors; type: in vivo, NMRI-Foxn1^nu mice
# Procedure: as §1, §2
# [7] = 168 mM CaCl2 with electroporation
smiles,measurement,setting,value
[Ca+2].[Cl-].[Cl-] [calcium chloride],"fraction of necrosis in tumors, course",[1],progressive necrosis
same,"effect of calcium electroporation on cell viability, calcium chloride versus calcium glubionate",DC-3F cells [2],no difference
same,"ATP level, percent of control","DC-3F cells [3]; 1 mM calcium with electroporation, up to 8 hours after treatment",10.3%
same,effect on ATP levels,DC-3F cells [3]; 1 mM calcium without electroporation,does not affect ATP levels
same,cell death,"[4]; with ultrasound, 0 to 3 mM calcium",dose dependent cell death
same,effect on cell viability,"[4]; without ultrasound, high calcium concentrations",no effect on cell viability
same,treated tumors eliminated,"[5]; 168 mM CaCl2 intratumoral with electroporation (8 pulses 1.0 kV/cm, 100 μs, 1 Hz), 8/9",89%
same,"healing of ulceration, average",[5]; [7],18 days
same,"healing of ulceration, range",[5]; [7],9 to 24 days
same,ulceration of treated tumors,[5]; [7],occurs in all
same,fluorescence intensity of tumors,"[5]; 168 mM CaCl2 with electroporation, stays at background levels",decrease drastically
same,necrosis of skin / healthy tissue around the tumor,"[5]; with electroporation, listed as Ca^2+-EP",skin necrosis
same,necrosis of skin / healthy tissue around the tumor,"[5]; with electroporation, listed as calcium solution",necrotic effect on the healthy tissues surrounding the neoplasm
same,necrosis of surrounding tissue,"[5]; injected volume ratio 0.5 of tumor volume, with electroporation",without creating necrosis in the surrounding tissue
same,tumor volume doubling time,[5]; isotonic calcium-chloride without electroporation,6.3 days
same,normal skin reaction (clinical observation),"basocellular carcinoma; highest volume (3.7 times tumor volume), with electroporation",necrosis of normal skin
same,tumor response (biopsy),"basocellular carcinoma; injected volume 0.1 of tumor volume, with electroporation",did not lead to changes
same,tumor response (biopsy),"basocellular carcinoma; injected volume 0.7 of tumor volume, electroporation 8 pulses 0.1 ms 1 kV/cm",efficient tumor cell kill
same,"fraction of necrosis in tumors, course","[6]; 168 mM CaCl2, half tumor volume, electroporation, first days after treatment",progressive necrosis
same,tumor re-growth,[6]; 6 days after the treatment,re-growth
